Laboratory results published in US20160221948A1, “NITROGEN-CONTAINING SATURATED HETEROCYCLIC COMPOUND” (SUMITOMO CHEMICAL COMPANY, LIMITED, priority 2013, published 2016).

Target: human SSTR4 (Homo sapiens, UniProt P31391)
Test: Evaluation of agonist activities using human SSTR4-stably expressing cells (aequorin luminescence)
Type: cell-based
Parameters: expressed in transfected cells; host or cells: HEK293
Conditions: for EC50: luminescence signal, 1 μmol/L somatostatin taken as 100%; for SSTR4 agonist activity compared with other compounds: Tables 25 to 27
Experimental: Evaluation of Agonist Activities Using Cells that stably expressing human-derived SSTR4 (human SSTR4-stably expressing cells)
(1) Human SSTR4-Stably Expressing Cells
Human SSTR4-stably expressing cells were prepared, and cultured. Specifically, HEK293 cells, human kidney-derived cells, were used as host cells. By introducing pcDNA3.1 (cat. No. V79020, invitrogen, Carlsbad, Calif., USA) to which human SSTR gene was inserted into HEK293 cells, human SSTR4-stably expressing cell line was obtained. For selection, G418 (cat. No. 16513-84, Nacalai tesque, Japan) was used.
As the culture medium, D-MEM medium (cat. No. 11995, GIBCO, USA), containing 10% FBS and 200 μg/mL G418, was used, the culture was performed in a 225 cm^2 flask (cat. No. 11-006-010, Iwaki, Japan).
At about 80% confluence, the cells were harvested by treating with 20-fold diluted 0.25% Trypsin-EDTA (cat. No. 35554-64, Nacalai, tesque, Japan). The harvested cells were prepared at a reaction medium composed of Hanks Buffer (cat. No. 14065-056, invitrogen, Carlsbad, Calif., USA)/20 mM Hepes (cat. No. 15630-080, invitrogen, Carlsbad, Calif., USA), and 0.1% BSA (cat. No. A7906, Sigma Aldrich, USA) to 70000 cells/mL. Gα16 and apoaequorin were transiently introduced to the harvested cells, and the cells were seeded to a 384 well plate (cat. No. 781090, Greiner, Germany) at about 2000 cells/30 μL/well. On the next day of cell seeding, Coelenterazine H (cat. No. S2011, Promega, USA) was added to each well (10 μL/well) to make a final concentration of 0.5 μmol/L, and the plate was centrifuged. Then, the plate was left at room temperature for 4 hours in shaded state.
(2) Preparation of Test Compounds
DMSO solution of each test compound having 1000-fold larger concentration than the final concentration was prepared. The DMSO solutions were made to have 10-fold concentration than the final concentration with Hanks/20 mmol/L Hepes/0.1% BSA.
(3) Evaluation of Agonist Activity
For detection of luminescence signal due to SSTR4-stimulation, FDSS7000 (manufactured by Hamamatsu Photonics K.K.) was used. To plates having cells and the luminescence substrate, solutions of test compounds were added, then each luminescence signal was measured for 90 seconds, and each relative luminescence unit (RLU) was calculated. Based on luminescence signal from the wells to which a 1 μmol/L somatostatin solution was added taken as 100%, agonist activity of each test compound was evaluated.

human SSTR4, sequence (P31391 whole entry): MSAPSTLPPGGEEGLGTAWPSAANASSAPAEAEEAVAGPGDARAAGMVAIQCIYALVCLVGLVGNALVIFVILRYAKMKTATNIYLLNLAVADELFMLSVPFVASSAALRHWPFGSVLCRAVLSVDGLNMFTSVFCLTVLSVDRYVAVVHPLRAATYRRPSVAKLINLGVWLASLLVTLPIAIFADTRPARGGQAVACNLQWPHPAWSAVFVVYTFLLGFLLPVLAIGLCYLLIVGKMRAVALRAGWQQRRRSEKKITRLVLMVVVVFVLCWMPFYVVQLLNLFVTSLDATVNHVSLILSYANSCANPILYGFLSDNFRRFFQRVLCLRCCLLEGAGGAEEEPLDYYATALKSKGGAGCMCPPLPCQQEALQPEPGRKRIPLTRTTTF

Compound | EC50 [nM] | SSTR4 agonist activity compared with other compounds
COc1ccc(F)cc1C(C)(C)NC(=O)[C@H]1CCCN(C)C1 [Example 54, (3S)—N-[2-(5-fluoro-2-methoxylphenyl)propane-2-yl]-1-methylpiperidine-3-carboxamide] | 8.2 | –
Cc1ccc(C)c(C(C)(C)NC(=O)[C@H]2CCCN(C)C2)c1 [Example 49] | 12 | –
CN1CCC[C@H](C(=O)NC(C)(C)c2ccc(Cl)cc2-c2ccccc2)C1 [Example 36] | > 100 | –
CC(C)N1CCC[C@H](C(=O)NC(C)(C)c2ccccc2Cl)C1 [Example 121] | 11.7 | –
Cc1cccc(C(C)(C)NC(=O)C2CCCN(C)C2)c1Cl (stereo not drawn) [Example 13] | 3.7 | stronger SSTR4 agonist activity
COc1ccccc1C(C)(C)NC(=O)[C@@H]1CN(C)CC[C@H]1c1ccccc1 (relative stereo) [Example 108] | 2.2 | stronger SSTR4 agonist activity
Cc1ccccc1C(C)(C)NC(=O)[C@H]1CCCN(C)C1 [Example 43, (3S)—N-[2-(2-methylphenyl)propane-2-yl]-1-methylpiperidine-3-carboxamide] | 13 | –
CN1CCC(C(=O)NC(C)(C)c2cccc3ccccc23)C1 (stereo not drawn) [Example 77] | 3 | –
CCCN1CCCC(C(=O)NC(C)(C)c2cccc3ccccc23)C1 (stereo not drawn) [Example 117] | 6.9 | –
Cc1ccc(C(C)(C)NC(=O)[C@H]2CCCN(C)C2)c(C)c1 [Example 35, (3S)—N-[2-(2,4-dimethylphenyl)propane-2-yl]-1-methylpiperidine-3-carboxamide] | 3.3 | –
CCN1CCCC(C(=O)NC(C)(C)c2cccc3ccccc23)C1 (stereo not drawn) [Example 116] | 1.7 | stronger SSTR4 agonist activity
CC[C@@H]1CC[C@H](C(=O)NC(C)(C)c2cccc3ccccc23)CN1C (relative stereo) [Example 90] | 3.1 | stronger SSTR4 agonist activity
C[C@@H]1CC[C@H](C(=O)NC(C)(C)c2cccc3ccccc23)CN1C (relative stereo) [Example 81] | 3.4 | stronger SSTR4 agonist activity
CN1CCC[C@H](C(=O)NC(C)(C)c2ccsc2)C1 [Example 59] | > 100 | –
CN1CCC[C@H](C(=O)NC(C)(C)c2ccccc2Br)C1 [Example 67, (3S)—N-[2-(2-bromophenyl)propane-2-yl]-1-methylpiperidine-3-carboxamide] | 1.5 | –
COc1ccccc1C(C)(C)NC(=O)[C@H]1CCCN(C)C1 [Example 53] | 8.8 | –
CN1CCC[C@H](C(=O)NC(C)(C)c2ccc(F)cc2)C1 [Example 69] | > 100 | –
CN1CC(C(=O)NC(C)(C)c2cccc3ccccc23)CC(C)(C)C1 (stereo not drawn) [Example 93] | 6 | –
CN1CC(F)CC(C(=O)NC(C)(C)c2cccc3ccccc23)C1 (stereo not drawn) [Example 92] | 3.2 | –
CN1CCC[C@H](C(=O)NC(C)(C)c2ccc(S(C)(=O)=O)cc2)C1 [Example 63] | > 100 | –
Cc1cc(C(C)(C)NC(=O)[C@H]2CCCN(C)C2)ccc1Cl [Example 48] | 10 | –
COc1cc(Cl)ccc1C(C)(C)NC(=O)[C@H]1CCCN(C)C1 [Example 30, (3S)—N-[2-(4-chloro-2-methoxylphenyl)propane-2-yl]-1-methylpiperidine-3-carboxamide] | 1.5 | stronger SSTR4 agonist activity
CN1CCC[C@H](C(=O)NC(C)(C)c2ccccc2F)C1 [Example 1, (3S)—N-[2-(2-fluorophenyl)propane-2-yl]-1-methylpiperidine-3-carboxyamide] | 62.7 | –
CN1CCC[C@H](C(=O)NC(C)(C)c2cccc(F)c2)C1 [Example 75] | 73.3 | –

Compound | EC50 [nM] | SSTR4 agonist activity compared with other compounds
CN1CC(C(=O)NC(C)(C)c2cccc(Cl)c2Cl)CCC1(C)C (stereo not drawn) [Example 97] | 85 | –
COc1ccccc1C(C)(C)NC(=O)[C@@H]1CN(C)CC[C@@H]1c1ccccc1 (relative stereo) [Example 107] | > 100 | –
CN1CCC[C@H](C(=O)NC(C)(C)c2ccc(Cl)cc2)C1 [Example 42] | 45.6 | –
CC[C@@H]1CC[C@@H](C(=O)NC(C)(C)c2cccc(Cl)c2Cl)CN1C (relative stereo) [Example 99] | > 100 | –
C[C@@H]1[C@H](C(=O)NC(C)(C)c2cccc3ccccc23)CCCN1C (relative stereo) [Example 84] | 19.8 | –
Cc1cccc(C2(NC(=O)C3CCCN(C)C3)CC2)c1C (stereo not drawn) [Example 5, N-[1-(2,3-dimethylphenyl)cyclopropyl]-1-methylpiperidine-3-carboxamide] | 34.1 | –
CC(C)N1CCC[C@H](C(=O)NC(C)(C)c2cccc3ccccc23)C1 [Example 115, (3S)—N-[2-(naphthalene-1-yl)propane-2-yl]-1-(propane-2-yl)pyperidine-3-carboxamide] | 1.9 | stronger SSTR4 agonist activity
Cc1ccc(C(C)(C)NC(=O)[C@H]2CCCN(C)C2)c(Cl)c1 [Example 37, (3S)—N-[2-(2-chloro-4-methylphenyl)propane-2-yl]-1-methylpiperidine-3-carboxamide] | 2.5 | stronger SSTR4 agonist activity
CC(C)c1cc(Cl)ccc1C(C)(C)NC(=O)[C@H]1CCCN(C)C1 [Example 33] | > 100 | –
CN1CC(C(=O)NC(C)(C)c2cccc3ccccc23)CC(F)(F)C1 (stereo not drawn) [Example 94] | 28.8 | –
CN1CCCC(C(=O)NC2(c3cccc4ccccc34)CC(F)(F)C2)C1 (stereo not drawn) [Example 4] | 343 | –
CN1CCCC(C(=O)NC2(c3cc(Cl)cc(Cl)c3)CCOCC2)C1 (stereo not drawn) [Example 9, N-[4-(3,5-dichlorophenyl)tetrahydro-2H-pyran-4-yl]-1-methylpiperidine-3-carboxamide] | 43.3 | –
CCc1cc(Cl)ccc1C(C)(C)NC(=O)[C@H]1CCCN(C)C1 [Example 31, (3S)—N-[2-(4-chloro-2-ethylphenyl)propane-2-yl]-1-methylpiperidine-3-carboxamide] | 1.4 | stronger SSTR4 agonist activity
CCN1CCC[C@H](C(=O)NC(C)(C)c2ccccc2Cl)C1 [Example 110, (3S)—N-[2-(2-chlorophenyl)propane-2-yl]-1-ethylpiperidine-3-carboxyamide] | 2.8 | stronger SSTR4 agonist activity
CN1CCC[C@H](C(=O)NC(C)(C)c2c(F)cccc2Cl)C1 [Example 74] | 20.9 | –
COC1CC(C(=O)NC(C)(C)c2cccc3ccccc23)CN(C)C1 (stereo not drawn) [Example 91] | 2.6 | –
[2H]C([2H])([2H])N1CCC[C@H](C(=O)NC(C)(C)c2ccccc2Cl)C1 [Example 122] | 3.6 | –
CN1CCC[C@H](C(=O)NC(C)(C)c2ccc(Br)cc2)C1 [Example 68] | > 100 | –
CCC(C)N1CCCC(C(=O)NC(C)(C)c2cccc3ccccc23)C1 (stereo not drawn) [Example 120] | 22.7 | –
COC[C@@H]1CC[C@H](C(=O)NC(C)(C)c2cccc3ccccc23)CN1C (relative stereo) [Example 105] | > 100 | –
CC1CC(C(=O)NC(C)(C)c2cccc3ccccc23)CN(C)C1 (stereo not drawn) [Example 86] | 16.2 | –
C[C@@H]1CC[C@@H](C(=O)NC(C)(C)c2cccc3ccccc23)CN1C (relative stereo) [Example 82] | 1.1 | –
CN1CCC[C@H](C(=O)NC(C)(C)c2cc(F)ccc2Cl)C1 [Example 73, (3S)—N-[2-(2-chloro-5-fluorohenyl)propane-2-yl]-1-methylpiperidine-3-carboxamide] | 7.1 | –
